{
  "source": "patent US20210161188A1",
  "about": "“POLYMETHOXYFLAVONES AS SWEETNESS ENHANCERS” (Firmenich SA, priority 2018, published 2021)",
  "type_in_all_cases": "in vivo, human",
  "key": {"[1]": {"tested_on": "sweetness of a reference water solution containing 4% sucrose (sucrose base)", "experiment": "Sensory panel of 25 trained panelists, sweet taste modifying effect in 4% sucrose, with nose-clip", "settings": "for enhancement of the sweetness of the sucrose base (in words): 5 ppm; for sweetness, With nose-clip (NC) / Significant level Student test (NC): 5 ppm in 4% sucrose; for sweetness, With nose-clip (NC): scale of −5 (strong masking) to 5 (strong enhancing), 0 = sucrose base; for Significant level Student test (NC): sweetness, with nose-clip", "text": "(§1) The taste of a sample of a composition according to several aspects presented herein, with regard to sweetness and/or sweetness enhancing properties, may be assessed in vivo by using a panel of trained sensory evaluators experienced in the sweet taste estimation procedure, e.g. in the sensory assay described e.g. in Examples 1 and 2, using a test base comprising a 4% sucrose solution, or similar composition.\n(§2) In sensory studies, panelists are asked to take a sample of the liquid to be assessed (test substance, e.g. the test base comprising a composition according to several aspects presented herein) into the mouth and after some time allowed for taste perception, to spit the sample out completely. Subsequently, the panelists are asked to rinse their mouth well with water or black tea to reduce any potential carry over effects. The tasting of a sample can be repeated if required.\nSensory Evaluations: A sensory panel consisted of 25 trained panelists. The panelists were asked to evaluate the sweet taste modifying effect of the isolated individual polymethoxyflavones in a reference water solution containing 4% sucrose. The panelists evaluated samples containing TMS, HMQ, NOB, HMF, TAN and SIN (all at 5 ppm), and a mixture comprising a mixture of polymethoxyflavones (PMF mixture at 10 ppm), for taste properties (sweet) on a scale of −5 to 5 (−5 denoted strong masking effect and 5 denoted strong enhancing effect, 0 being the intensity of a reference water solution containing 4% sucrose—referred to herein as the sucrose base)."}, "[2]": {"tested_on": "sweetness of a reference water solution containing 4% sucrose (sucrose base)", "experiment": "Additional sensory evaluation, 8 trained panelists, dose series in 4% sucrose", "text": "as §1, §2\nAdditional Sensory Evaluations: A sensory panel consisted of 8 trained panelists. The panelists were asked to evaluate the sweet taste modifying effect of 0.001, 0.1, 1, 2, and 20 ppm of either TMS, HMQ, or NOB in a reference water solution containing 4% sucrose, on a scale of −5 to 5 (−5 denoted strong masking effect and 5 denoted strong enhancing effect, 0 being the intensity of a reference water solution containing 4% sucrose—referred to herein as the sucrose base)."}, "[3]": {"tested_on": "sweetness of a reference water solution containing 4% sucrose", "experiment": "Additional sensory evaluation, 8 trained panelists, TMS, HMQ and TMS:HMQ mixtures in different ratio", "settings": "for significance of sweetness enhancement: Low sugar beverage (4% sucrose)", "text": "as §1, §2\nA sensory panel consisted of 8 trained panelists. The panelists were asked to evaluate the sweet taste modifying effect of 0.5, 1, 2 ppm of either TMS or HMQ as well as 1, 1.5, 2 ppm of TMS and HMQ mixture in different ratio in a reference water solution containing 4% sucrose."}, "[4]": {"tested_on": "sweetness of reduce sugar fruit tea beverage", "experiment": "Additional sensory evaluation, 8 trained panelists, fruit tea beverage", "design": "significance of sweetness enhancement: key to the marks not given beside the values", "text": "as §1, §2\nAdditional Sensory Evaluations: A sensory panel consisted of 8 trained panelists. The panelists were asked to evaluate the sweet taste modifying effect of 0.001, 2 and 20 ppm of PMF mixture and 0.2 ppm of TMS, 0.1 ppm of HMQ, and 0.3 ppm of the mixture of TMS and HMQ at ratio of 2 to 1 in a reference low sugar fruit tea beverage solution as well as standard sugar fruit tea beverage solution."}, "[5]": {"settings": "at 0.1 and 0.001 ppm in 4% sucrose"}, "[6]": {"settings": "at doses less than or equal to 2 ppm in 4% sucrose"}},
  "data": [
    {"smiles": "COc1ccc(-c2oc3c(OC)c(OC)c(OC)c(OC)c3c(=O)c2OC)cc1OC", "note": "[HMF, 3,5,6,7,8,3′,4′-heptamethoxyflavone]", "values": [
      {"measurement": "enhancement of the sweetness of the sucrose base (in words)", "setting": "[1]", "result": "Neither HMF, nor SIN had any observable enhancement of sweetness"},
      {"measurement": "sweetness, With nose-clip (NC)", "setting": "[1]", "result": 0.21}
    ]},
    {"smiles": "COc1ccc(-c2oc3cc(OC)c(OC)c(OC)c3c(=O)c2OC)cc1OC", "note": "[HMQ, 3,5,6,7,3′,4′-hexamethoxyflavone]", "values": [
      {"measurement": "enhancement of the sweetness of the sucrose base (in words)", "setting": "[1]", "result": "significantly enhance the sweetness of the sucrose base"},
      {"measurement": "Significant level Student test (NC)", "setting": "[1]", "result": "++"},
      {"measurement": "sweetness, With nose-clip (NC)", "setting": "[1]", "result": 0.57},
      {"measurement": "significance of sweetness enhancement", "setting": "[2]; 0.001 ppm in 4% sucrose", "result": "+++"},
      {"measurement": "significance of sweetness enhancement", "setting": "[2]; 0.1 ppm in 4% sucrose", "result": "++"},
      {"measurement": "significance of sweetness enhancement", "setting": "[2]; 2 ppm in 4% sucrose", "result": "++"},
      {"measurement": "sweetness enhancement effect (in words)", "setting": "[2]; [5]", "result": "significant sweetness enhancement effect"},
      {"measurement": "sweetness enhancement effect (in words)", "setting": "[2]; [6]", "result": "better sweetness enhancement effect"},
      {"measurement": "significance of sweetness enhancement", "setting": "[3]; 0.5 ppm", "result": "++"},
      {"measurement": "sweetness enhancement effect (in words)", "setting": "[3]; 1 ppm", "result": "did not show any observable sweetness enhancement effect"},
      {"measurement": "significance of sweetness enhancement", "setting": "[3]; 2 ppm", "result": "++"},
      {"measurement": "sweetness enhancement effect (in words)", "setting": "[4]; 0.1 ppm in reduce sugar fruit tea beverage", "result": "did not show the sweetness enhancement effect"}
    ]},
    {"smiles": "COc1ccc(-c2cc(=O)c3c(OC)c(OC)c(OC)c(OC)c3o2)cc1OC", "note": "[NOB, 5,6,7,8,3′,4′-hexamethoxyflavone, reference compound]", "values": [
      {"measurement": "enhancement of the sweetness of the sucrose base (in words)", "setting": "[1]", "result": "significantly enhance the sweetness of the sucrose base"},
      {"measurement": "Significant level Student test (NC)", "setting": "[1]", "result": "++"},
      {"measurement": "sweetness, With nose-clip (NC)", "setting": "[1]", "result": 0.37},
      {"measurement": "significance of sweetness enhancement", "setting": "[2]; 0.001 ppm in 4% sucrose", "result": "++"},
      {"measurement": "sweetness enhancing properties (in words)", "setting": "[2]; 0.001 to 20 ppm in 4% sucrose, in contrast to TMS and HMQ", "result": "less significant"},
      {"measurement": "significance of sweetness enhancement", "setting": "[2]; 1 ppm in 4% sucrose", "result": "++"},
      {"measurement": "significance of sweetness enhancement", "setting": "[2]; 20 ppm in 4% sucrose", "result": "++"}
    ]},
    {"smiles": "COc1ccc(-c2cc(=O)c3c(OC)c(OC)c(OC)cc3o2)cc1OC", "note": "[SIN, 5,6,7,3′,4′-pentamethoxyflavone]", "values": [
      {"measurement": "enhancement of the sweetness of the sucrose base (in words)", "setting": "[1]", "result": "Neither HMF, nor SIN had any observable enhancement of sweetness"},
      {"measurement": "sweetness, With nose-clip (NC)", "setting": "[1]", "result": 0.17}
    ]},
    {"smiles": "COc1ccc(-c2cc(=O)c3c(OC)c(OC)c(OC)c(OC)c3o2)cc1", "note": "[TAN, 5,6,7,8,4′-pentamethoxyflavone]", "values": [
      {"measurement": "enhancement of the sweetness of the sucrose base (in words)", "setting": "[1]", "result": "negative effect of sweetness"},
      {"measurement": "Significant level Student test (NC)", "setting": "[1]", "result": "−"},
      {"measurement": "sweetness, With nose-clip (NC)", "setting": "[1]", "result": "−0.30"}
    ]},
    {"smiles": "COc1ccc(-c2cc(=O)c3c(OC)c(OC)c(OC)cc3o2)cc1", "note": "[TMS, 5,6,7,4′-tetramethoxyflavone]", "values": [
      {"measurement": "enhancement of the sweetness of the sucrose base (in words)", "setting": "[1]", "result": "significantly enhance the sweetness of the sucrose base"},
      {"measurement": "Significant level Student test (NC)", "setting": "[1]", "result": "++"},
      {"measurement": "sweetness, With nose-clip (NC)", "setting": "[1]", "result": 0.55},
      {"measurement": "significance of sweetness enhancement", "setting": "[2]; 0.001 ppm in 4% sucrose", "result": "++"},
      {"measurement": "significance of sweetness enhancement", "setting": "[2]; 0.1 ppm in 4% sucrose", "result": "++"},
      {"measurement": "significance of sweetness enhancement", "setting": "[2]; 1 ppm in 4% sucrose", "result": "++"},
      {"measurement": "significance of sweetness enhancement", "setting": "[2]; 2 ppm in 4% sucrose", "result": "+"},
      {"measurement": "sweetness enhancement effect (in words)", "setting": "[2]; [5]", "result": "significant sweetness enhancement effect"},
      {"measurement": "sweetness enhancement effect (in words)", "setting": "[2]; [6]", "result": "better sweetness enhancement effect"},
      {"measurement": "significance of sweetness enhancement", "setting": "[3]; 1 ppm", "result": "++"},
      {"measurement": "significance of sweetness enhancement", "setting": "[3]; 2 ppm", "result": "+"},
      {"measurement": "significance of sweetness enhancement", "setting": "[4]; +0.2 ppm in reduce sugar fruit tea beverage", "result": "++"}
    ]}
  ]
}
